From article PMC5937873, “Improving the biopharmaceutical attributes of mangiferin using vitamin E-TPGS co-loaded self-assembled phosholipidic nano-mixed micellar systems” (Drug Delivery and Translational Research, 2018)
Values after ≈ are worked out from the molar mass of the structure shown. Like-named read-outs stand apart in the source and are kept apart here. Each block holds one molecule with its values, some of them ahead of it.

Legend:
[1] = Biopharmaceutics classification (BCS); details: by virtue of low aqueous solubility and lipophilicity
[2] = In vivo pharmacokinetic studies; details: rat, oral, Mgf equivalent to 30 mg/kg
Experimental: In vivo pharmacokinetic studies were conducted by sparse sampling designed experiment. The formulations were administered through oral gavage on two groups of rats (n = 60). Within each group, five subgroups were designated (5 × 6 = 30 animals were employed in one group) and from one animal maximum two blood samples were withdrawn during the entire study alternating between left and right eyes. Group I was administered plain Mgf solution and Group II was given Mgf-SPNMS containing Mgf equivalent to 30mg/Kg. The animals were anesthetized employing isoflurane, and the blood (200 μL) was withdrawn from the retro-orbital plexus of rats at 0.5, 1, 2, 3, 6, 12, 18, 24, and 36 h, in heparin-coated micro-centrifuge tubes.
Further, plasma was harvested by centrifugation at 10,000 rpm (559 g) for 5 min and analyzed for Mgf using the previously reported and validated HPTLC method. The data were analyzed by non-compartmental and compartmental pharmacokinetic modeling approaches using the WinNonlin software, version 5.0 ([…]). Statistical tests like one-way/two-way ANOVA followed by post hoc multiple comparison tests, and Student’s independent t test has been applied wherever applicable.

[3] = Equilibrium solubility studies in emulgents and cosolvents; assay type: physicochemical; details: 37 ± 1 °C
Experimental: Solubility studies for Mgf were carried out for 72 h at 37 ± 1 °C in a water bath by adding an excess amount of drug in various water-soluble emulgents, viz. Acconon CC-6, Cremophor RH40, Cremophor EL, Vitamin E TPGS, Labrafil […], Labrasol, Tween 80 and Tween 40. Cosolvents employed included Transcutol HP, PEG 200, and propylene glycol. Aliquots of the filtrate were suitably diluted with methanol and analyzed using the HPTLC method previously reported by the authors at a λmax of 262 nm.

whole blood = experiment: Hematological studies (whole blood count, RBC morphology); details: SD female rats, 30 mg/kg Mgf oral gavage, three times per week for 4 weeks
vital organs = experiment: Histopathology of vital organs (in vivo toxicity); details: SD female rats, 30 mg/kg Mgf oral gavage, three times per week for 4 weeks
[4] = excised rat small intestine, 2 h
MDR1 transporters = molecular target: T1, MDR1 transporters (Homo sapiens, UniProt P08183); experiment: P-gp efflux assay with Rh-123 dye (multi-drug resistance dye efflux kit); assay type: cell-based; details: MCF-7 and MDA-MB-231 cells, 37 °C
T1 construct: Overexpression of P-gp in MCF-7 and MDA-MB-231 cells is well-documented in literature; endogenous in cells; host or cells: MCF-7 and MDA-MB-231 cells
Experimental: (§1) Overexpression of P-gp in MCF-7 and MDA-MB-231 cells is well-documented in literature. […] For evaluating the P-gp efflux, the multi-drug resistance dye efflux assay kit (Chemicon International, USA) was employed in which the MCF-7 and MDA-MB-231 cells (2.5 × 10^5) were treated with Rh-123 and DiOC2 dyes, with or without vinblastine. To assess the inhibitory activity of SPNMS on MDR1 transporters, these were incubated with Rh-123 alone, Rh-123 with SPNMS, and Rh-123 with vinblastine at 37 °C, along with Rh-123 at 4 °C. Likewise, to estimate the potential of the developed SPNMS formulation for blocking the activity of BCRP transporters, DiOC2 dye was employed. On similar heels, MCF-7 and MDA-MB-231 cells (2.5 × 10^5) were incubated with DiOC2 alone, DiOC2 with SPNMS, and DiOC2 with vinblastine at 37 °C, along with DiOC2 at 4 °C. The fluorescence intensity was measured in a TECAN fluorescence microplate reader at an excitation wavelength of 485 nm and an emission wavelength of 530 nm.

BCRP transporters = molecular target: T2, BCRP transporters (Homo sapiens, UniProt Q9UNQ0); experiment: P-gp efflux assay with DiOC2 dye (multi-drug resistance dye efflux kit); assay type: cell-based; details: MCF-7 and MDA-MB-231 cells, 37 °C
T2 construct: endogenous in cells; host or cells: MCF-7 and MDA-MB-231 cells
T2 sequence (Q9UNQ0 1-655): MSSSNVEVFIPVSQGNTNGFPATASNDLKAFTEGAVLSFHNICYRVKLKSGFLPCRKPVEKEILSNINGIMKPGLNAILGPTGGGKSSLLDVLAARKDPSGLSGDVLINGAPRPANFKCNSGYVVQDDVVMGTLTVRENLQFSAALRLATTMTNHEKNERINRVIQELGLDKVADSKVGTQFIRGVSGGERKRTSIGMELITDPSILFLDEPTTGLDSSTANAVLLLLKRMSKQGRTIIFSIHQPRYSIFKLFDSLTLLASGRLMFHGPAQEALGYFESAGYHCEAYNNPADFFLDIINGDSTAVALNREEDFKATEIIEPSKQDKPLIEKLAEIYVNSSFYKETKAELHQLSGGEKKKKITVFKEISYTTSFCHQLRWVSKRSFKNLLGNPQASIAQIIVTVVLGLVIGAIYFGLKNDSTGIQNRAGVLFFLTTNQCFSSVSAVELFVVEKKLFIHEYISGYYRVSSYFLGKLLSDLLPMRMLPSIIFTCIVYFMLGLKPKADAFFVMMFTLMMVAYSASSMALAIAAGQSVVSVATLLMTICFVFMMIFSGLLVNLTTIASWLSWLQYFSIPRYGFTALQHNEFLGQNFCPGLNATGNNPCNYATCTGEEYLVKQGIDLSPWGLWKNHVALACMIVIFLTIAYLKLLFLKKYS
Experimental: as §1

T1 sequence (P08183 whole entry): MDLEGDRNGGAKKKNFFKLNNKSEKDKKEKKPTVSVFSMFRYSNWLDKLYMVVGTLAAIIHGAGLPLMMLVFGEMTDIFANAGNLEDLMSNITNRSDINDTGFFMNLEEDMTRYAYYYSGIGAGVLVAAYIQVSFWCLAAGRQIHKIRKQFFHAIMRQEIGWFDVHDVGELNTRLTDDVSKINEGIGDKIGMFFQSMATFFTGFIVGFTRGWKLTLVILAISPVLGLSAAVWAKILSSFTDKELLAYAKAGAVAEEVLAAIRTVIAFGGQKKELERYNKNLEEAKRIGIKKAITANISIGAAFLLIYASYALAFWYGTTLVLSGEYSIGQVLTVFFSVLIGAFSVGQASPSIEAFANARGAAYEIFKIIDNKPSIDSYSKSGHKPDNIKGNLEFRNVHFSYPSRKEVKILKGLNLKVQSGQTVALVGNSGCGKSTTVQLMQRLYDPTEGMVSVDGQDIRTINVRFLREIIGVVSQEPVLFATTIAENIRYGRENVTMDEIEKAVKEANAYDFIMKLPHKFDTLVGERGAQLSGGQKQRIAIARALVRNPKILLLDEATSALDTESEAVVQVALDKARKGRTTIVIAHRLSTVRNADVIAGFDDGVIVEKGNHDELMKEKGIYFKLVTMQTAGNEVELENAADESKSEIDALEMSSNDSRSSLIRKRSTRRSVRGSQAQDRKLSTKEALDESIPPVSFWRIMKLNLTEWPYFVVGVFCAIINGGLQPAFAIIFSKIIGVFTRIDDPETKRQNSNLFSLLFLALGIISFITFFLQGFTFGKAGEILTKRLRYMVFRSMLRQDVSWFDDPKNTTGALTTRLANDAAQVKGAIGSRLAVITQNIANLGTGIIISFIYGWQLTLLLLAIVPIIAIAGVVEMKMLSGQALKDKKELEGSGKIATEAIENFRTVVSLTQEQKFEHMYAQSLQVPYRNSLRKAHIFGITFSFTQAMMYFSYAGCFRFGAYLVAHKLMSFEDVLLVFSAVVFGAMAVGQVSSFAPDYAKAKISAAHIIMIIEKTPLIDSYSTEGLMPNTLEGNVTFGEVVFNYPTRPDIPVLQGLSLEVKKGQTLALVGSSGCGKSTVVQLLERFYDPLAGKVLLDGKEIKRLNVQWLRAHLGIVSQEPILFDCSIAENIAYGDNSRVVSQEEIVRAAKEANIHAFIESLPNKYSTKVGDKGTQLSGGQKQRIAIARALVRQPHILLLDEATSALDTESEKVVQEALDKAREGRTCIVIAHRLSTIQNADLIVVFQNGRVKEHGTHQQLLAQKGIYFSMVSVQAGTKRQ

BCS class [1]: BCS class IV
Cmax ([2]; plasma): 297 ± 56.4 ng/mL
MRT ([2]; plasma): 8.16 ± 1.73 h
Tmax ([2]; plasma): 3.08 ± 0.18 h
Cl [2]: 2543.44 ± 453.42 mL/h
Ka [2]: 0.32 ± 0.09 h⁻¹
solubility thermodynamic at 72 h ([3]; PEG 200 (cosolvent), highest among cosolvents, read-out: equilibrium solubility in PEG 200): 10.2 mg/mL (≈ 24.2 mM)
solubility thermodynamic at 72 h ([3]; vitamin E TPGS (water-soluble emulgent), maximum among surfactants, read-out: equilibrium solubility in vitamin E TPGS): 17.6 mg/mL (≈ 41.8 mM)
HCT (whole blood): 43.9%
HGB (whole blood): 14.54 g/dL
PLT count (whole blood): AG* 589 × 10^3/μL
RBC count (whole blood): 8.21e+06 µL⁻¹
WBC count (whole blood): 16400 µL⁻¹
SMILES: O=c1c2cc(O)c(O)cc2oc2cc(O)c([C@@H]3O[C@H](CO)[C@@H](O)[C@H](O)[C@H]3O)c(O)c12 [Mgf, mangiferin]
histopathological change(s) in vital organs (vital organs): no histopathological change(s)

intestinal permeation (CLSM) [4]: does not permeate through the intestine
SMILES: COC(=O)c1ccccc1-c1c2ccc(=N)cc-2oc2cc(N)ccc12 [Rh-123, Rhodamine 123]

SMILES: CC[C@]1(O)C[C@@H]2CN(CCc3c([nH]c4ccccc34)[C@@](C(=O)OC)(c3cc4c(cc3OC)N(C)[C@H]3[C@@](O)(C(=O)OC)[C@H](OC(C)=O)[C@]5(CC)C=CCN6CC[C@]43[C@@H]65)C2)C1 [vinblastine]
inhibition of Rh-123 efflux (fluorescence intensity) (MDR1 transporters): higher fluorescence intensity without any efflux
inhibition of DiOC2 efflux (fluorescence intensity) (BCRP transporters): higher fluorescence intensity without any efflux
